In patent US9974778B2, “Substituted pyridinones as MGAT2 inhibitors” (BRISTOL-MYERS SQUIBB COMPANY, priority 2014, dated 2018) one finds IC50 data, which are given here for twelve compounds.

The term IC50 denotes the concentration that gives 50% inhibition.

Molecules are shown by their SMILES.

The target of the assay is T1, Human MGAT-2 (Homo sapiens, UniProt Q3SYC2).
T1 construct: made in house; host or cells: Sf9 cells (membrane preparation)
T1 sequence (Q3SYC2 whole entry): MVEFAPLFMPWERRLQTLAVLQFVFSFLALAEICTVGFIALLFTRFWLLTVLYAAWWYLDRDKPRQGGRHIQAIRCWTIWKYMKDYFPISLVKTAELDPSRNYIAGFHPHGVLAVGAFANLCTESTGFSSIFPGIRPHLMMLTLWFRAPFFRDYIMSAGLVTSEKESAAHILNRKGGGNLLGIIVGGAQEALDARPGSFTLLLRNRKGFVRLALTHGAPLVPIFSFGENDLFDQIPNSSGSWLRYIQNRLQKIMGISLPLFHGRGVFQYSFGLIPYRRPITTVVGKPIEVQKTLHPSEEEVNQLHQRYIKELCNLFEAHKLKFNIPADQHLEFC
The experiment in a line: MGAT LCMS Assay. It counts as biochemical. The following applies: human MGAT2 membranes expressed in Sf9 cells; 100 μM 2-oleoylglycerol, 15 μM oleoyl-coenzyme A; read-out: h-MGAT LCMS IC50. In short, it runs like this:
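Robotic enzyme reaction shaken 10 min, quenched with ice-cold methanol containing 1 μg/mL 1,2-distearoyl-rac-glycerol internal standard. Diolein product measured by LC/MS (C8 column, 65° C, APCI(+) triple quad). IC50 derived from diolein/internal standard peak area ratio.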
For the compound `CCOc1cc(OCCCCCC(F)(F)F)ccc1-c1cc(-c2ccc(C3CC3)cc2)c(-c2nnn[nH]2)c(=O)[nH]1` [Example 124, 4-(4-Cyclopropylphenyl)-6-(2-ethoxy-4-((6,6,6-trifIuorohexyl)oxy)phenyl)-3-(1H-tetrazol-5-yl)pyridin-2(1H)-one], the IC50 turned out to be 129 nM. Next, `CCc1ccc(-c2cc(-c3ccc(OCCCC(F)(F)F)cc3)[nH]c(=O)c2C(=O)NS(C)(=O)=O)s1` [Example 21, 4-(5-Ethylthiophen-2-yl)-N-(methylsulfonyl)-2-oxo-6-(4-(4,4,4-trifluorobutoxy)phenyl)-1,2-dihydropyridine-3-carboxamide]: 21 nM; `CS(=O)(=O)NC(=O)c1c(-c2ccc(OC(F)F)cc2)cc(-c2ccc(OCCCCCC(F)(F)F)cc2)[nH]c1=O` [Example 71]: 15 nM. In the case of `CN(C)c1ncc(-c2cc(C3CCCCC3)[nH]c(=O)c2C(=O)Nc2ccc(OC(F)(F)F)cc2)s1` [Example 82, 6-Cyclohexyl-4-(2-(dimethylamino)thiazol-5-yl)-2-oxo-N-(4-(trifluoromethoxy)phenyl)-1,2-dihydropyridinc-3-carboxamide] it was 1 nM; in that of `CCc1ccc(-c2cc(-c3ccc(OCCCCCC(F)(F)F)cc3)[nH]c(=O)c2-n2nn[nH]c2=O)s1` [Example 156, 4-(5-Ethylthiophen-2-yl)-3-(5-oxo-4,5-dihydro-1H-1,2,3,4-tetrazol-1-yl)-6-{4-[(6,6,6-trifluorohexyl)oxy]phenyl}-1,2-dihydropyridin-2-one], 143 nM; in that of `O=c1[nH]c(-c2ccc(OCCCCCC(F)(F)F)cc2)cc(-c2ccc(OC(F)F)cc2)c1-c1nnn[nH]1` [Example 108, 4-(4-(Difluoromethoxy)phenyl)-3-(1H-tetrazol-5-yl)-6-(4-((6,6-trifluorohexyl)oxy)phenyl)pyridin-2(1H)-one], 14 nM.

Take `CC(C)(C)c1ccc(-c2cc(-c3ccc(OCCCC(F)(F)F)cc3)[nH]c(=O)c2C(=O)NS(=O)(=O)C2CC2)cc1` [Example 12, 4-(4-(tert-Butyl)phenyl)-N-(cyclopropylsulfonyl)-2-oxo-6-(4-(4,4,4-trifluorobutoxy)phenyl)-1,2-dihydropyridine-3-carboxamide]: the IC50 worked out at 56 nM. As for `O=c1cc(-c2ncc(C3CC3)s2)cc(-c2ccc(OCCCCCC(F)(F)F)cc2F)[nH]1` [Example 165, 4-(5-Cyclopropyl-1,3-thiazol-2-yl)-6-{2-fluoro-4-[(6,6,6-trifluorohexyl)oxy]phenyl}-1,2-dihydropyridin-2-one], the IC50 is 420 nM. Regarding `CCOc1ccc(NC(=O)c2c(-c3ccc(C)cc3)cc(-c3ccc(OCCCC(F)(F)F)cc3)[nH]c2=O)cc1` [Example 5, N-(4-Ethoxyphenyl)-2-oxo-4-(p-tolyl)-6-(4-(4,4,4-trifluorobutoxy)phenyl)-1,2-dihydropyridine-3-carboxamide], the concentration for half-maximal inhibition (IC50) was 21 nM.

`Cc1ccc(-c2cc(-c3ccc(OCCCC(F)(F)F)cc3F)[nH]c(=O)c2C(=O)Nc2ccc(OC(F)(F)F)cc2)cc1` [Example 122, 6-(2-Fluoro-4-(4,4,4-trifluorobutoxy)phenyl)-2-oxo-4-(p-tolyl)-N-(4-(trifluorormethoxy)phenyl)-1,2-dihydropyridine-3-carboxamide]: the 50% inhibitory concentration (IC50) amounted to 27 nM.

Turning to `CCc1cnc(-c2cc(-c3ccc(OCCCCCC(F)(F)F)cc3F)[nH]c(=O)c2-c2nnn[nH]2)s1` [Example 148, 4-(5-Ethylthiazol-2-yl)-6-(2-fluoro-4-((6,6,6-trifluorohexyl)oxy)phenyl)-3-(1H-tetrazol-5-yl)pyridin-2(1H)-one], the IC50 amounted to 0.8 nM. As to `CCOc1ccc(NC(=O)c2c(-c3ccc(C)cc3)c(F)c(C3CCCCC3)[nH]c2=O)cc1` [Example 38, 6-Cyclohexyl-N-(4-ethoxyphenyl)-5-fluoro-2-oxo-4-(p-tolyl)-1,2-dihydropyridine-3-carboxamide], the 50% inhibitory concentration (IC50) came to 1250 nM.
